Experiments:
pigmentation of skin = test: Skin whitening of UV-induced pigmentation, chromameter L* value; format: in vivo, brown guinea pigs; conditions: 1.0 %, topical once or twice a day for 50 days, UV-pigmented abdominal skin
Protocol: A whitening effect of matrine and oxymatrine was measured using brown guinea pigs (Charles River Laboratories, Inc.), known to increase its pigmentation upon exposure to ultraviolet light, like in humans. To cause pigmentation in the brown guinea pig by ultraviolet (UV), aluminum foil with square windows of 3×3 cm^2 was adhered to hair-removed abdominal skin of brown guinea pig, and then UV light was irradiated thereon with a SE lamp (wavelength 290-320 nm, Toshiba) (total irradiation energy=1350 mJ/cm^2). After UV irradiation, the aluminum foil was removed and samples (matrine, oxymatrine or albutin) were applied as the following method. […] From the maximum, samples were applied. Applications performed once or twice a day for 50 days. […] The control with only the solvent was applied to another site. Occurrence of cumulative irritation also was examined. The degree of pigmentation of skin was determined using a chromameter (CR2002, MINOLTA, JP) to estimate the effects of applied samples. L*a*b* colorimetric system was used to classify color and L* value was used as standard in the present invention. The L* value was corrected using white board standard and was measured more than five times at one site, repeatedly. Pigmentation was evenly distributed. Skin color differences (ΔL*) between application initial point and application terminal point were obtained and then using these values, their effects of the applied samples were estimated. ΔL*=L* value at […] after application-L* value at application initial day. Equation 1 ΔL* values were obtained both at sample application site and control application site and compared, whereby the effects of the whitening substances can be estimated.

tyrosinase = target: T1, tyrosinase (Mus musculus, UniProt P11344); test: Inhibition of intracellular tyrosinase activity in melanoma cells; format: cell-based, Murine; conditions: B16-F1; 100 μM, 3 days, B-16 F1 cells; read-out: Inhibitory rate of intracellular tyrosinase activity (%)
T1 construct: This cell pellets were lysated using lysis buffer, centrifuged at 12,000 rpm for 10 min and the supernatant was collected; endogenous in cells; host or cells: B16 F1 mouse melanoma cells (Korean Cell Line Bank)
T1 sequence (P11344 19-533): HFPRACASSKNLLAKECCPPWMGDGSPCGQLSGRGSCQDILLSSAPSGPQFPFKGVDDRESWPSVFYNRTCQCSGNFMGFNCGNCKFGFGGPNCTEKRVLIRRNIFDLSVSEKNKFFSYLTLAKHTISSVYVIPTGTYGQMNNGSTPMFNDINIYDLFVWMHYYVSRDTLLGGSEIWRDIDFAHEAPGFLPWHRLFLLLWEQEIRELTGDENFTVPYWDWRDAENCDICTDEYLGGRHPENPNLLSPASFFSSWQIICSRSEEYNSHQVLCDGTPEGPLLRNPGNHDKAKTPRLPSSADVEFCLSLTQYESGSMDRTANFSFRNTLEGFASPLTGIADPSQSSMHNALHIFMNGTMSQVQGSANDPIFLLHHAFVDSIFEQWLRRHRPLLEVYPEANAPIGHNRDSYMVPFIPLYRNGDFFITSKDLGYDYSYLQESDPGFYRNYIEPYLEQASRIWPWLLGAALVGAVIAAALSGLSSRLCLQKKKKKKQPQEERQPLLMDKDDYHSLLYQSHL
Protocol: After measuring the inhibition of melanin production by matrine and oxymatrine using B16 mouse melanoma cells (Korean Cell Line Bank), the measurement was compared with that for the inhibition of intracellular tyrosinase activities by arbutin, known as a melanin production inhibitor.
Murine melanoma (B-16 F1) cells were seeded into each well of a 6-well plate (1×10^5 cells/well) in DMEM containing 10% FBS (fetal bovine serum) and the cells were cultured to about more than 80% adherence by incubating in a CO2 incubator under conditions of 37° C. and 5.0% CO2. After cultivation, the medium was removed and samples were replaced in medium diluted at suitable concentration, followed by incubating for 3 days under conditions of 37° C. and 5.0% CO2. […] The cells removing medium were washed with PBS (phosphate buffer saline) and treated with trypsin to collect cells. Number of the collected cells was calculated using hematocytometer, centrifuged at 5,000 to 10,000 rpm for 10 min and the supernatant was eliminated, thereby obtaining pellets. This cell pellets were lysated using lysis buffer, centrifuged at 12,000 rpm for 10 min and the supernatant was collected. Then, the cell solution was measured for absorbance at 492 nm using microplate reader and the activity of tyrosinase per cell constant number was estimated.

B16 mouse melanoma cells = test: Inhibition of melanin production in melanoma cells; format: cell-based; conditions: 72 h, 100 μM, 3 days, read-out: Inhibitory rate of melanin production (%)
Protocol: After measuring the inhibition of melanin production by matrine and oxymatrine using B16 mouse melanoma cells (Korean Cell Line Bank), the measurement was compared with that for the inhibition of melanin production by arbutin, known as a melanin production inhibitor.
B16 mouse melanoma cells F10 (Korean Cell Line Bank) were seeded into each well of a 6-well plate (1×10^5 cells/well) in DMEM (Dulbecco's modified Eagle's media) containing 10% FBS (fetal bovine serum) and the cells were cultured to about more than 80% confluence by incubating in a CO2 incubator under conditions of 37° C. and 5.0% CO2. After cultivation, the medium was removed and samples were replaced in medium diluted at suitable concentration, followed by incubating for 3 days under conditions of 37° C. and 5.0% CO2. […] The cells removing medium were washed with PBS (phosphate buffer saline) and treated with trypsin to collect cells. Number of the collected cells was calculated using hematocytometer (Tiefe Depth Profondeur 0.100 mm, Paul Marienfeld GmbH & Co. KG, D.E), centrifuged at 5,000 to 10,000 rpm for 10 min and the supernatant was eliminated, thereby obtaining pellets. This cell pellets were dried at 60° C., 100 μl of 1M NaOH containing 10% DMSO was added to thereto, and intracellular melanin was obtained in incubator at 60° C. Then, the cell solution was measured for absorbance at 490 nm using microplate reader (Bio-Tek ELx8081U, U.S) and the amount of melanin per cell constant number was estimated.

OC[C@H]1O[C@@H](Oc2ccc(O)cc2)[C@H](O)[C@@H](O)[C@@H]1O [Albutin, arbutin, reference compound]
Whitening effects (ΔL) (pigmentation of skin): 0.49
inhibition at 100 µM (tyrosinase): 29%
inhibition at 100 µM (B16 mouse melanoma cells): 26%
